# Earlier results, collected in patent US20150320893A1, “TREATMENT OF LATENT HIV INFECTION” (priority 2012, published 2015).
# System: latent virus in harboring cells
# Conditions: by manipulating the PKC pathway(s) within the cell
row,SMILES,ability to induce latent viral replication
1,CC(=O)O[C@@]12C[C@@H](C)[C@@]3(O)[C@@H](C=C(CO)C[C@]4(O)C(=O)C(C)=C[C@@H]34)[C@@H]1C2(C)C [Prostratin],induce latent viral replication without encouraging cell cycle progression
2,"CCC/C=C/C=C/C(=O)O[C@H]1/C(=C/C(=O)OC)C[C@H]2C[C@H]([C@@H](C)O)OC(=O)C[C@H](O)C[C@@H]3C[C@H](OC(C)=O)C(C)(C)[C@](O)(C[C@@H]4C/C(=C/C(=O)OC)C[C@H](/C=C/C(C)(C)[C@]1(O)O2)O4)O3 [bryostatin-1, bryostatin 1]",induce latent viral replication without encouraging cell cycle progression
